Patent US20260356841A1, “HETEROCYCLIC PYRIDINONE COMPOUNDS AS TRIGGERING RECEPTOR EXPRESSED ON MYELOID CELLS 2 AGONISTS AND METHODS OF USE” (Vigil Neuroscience, Inc., priority 2023, published 2026)

biological target: T1, human TREM2 (Homo sapiens, UniProt Q9NZC2); experiment: TREM2 agonist potency by cellular phosphorylation of Spleen Tyrosine Kinase (Syk), AlphaLisa, HEK293T-hTREM2 cells; assay type: cell-based; conditions: not given
T1 construct: expressed in transfected cells; host or cells: HEK293T (HEK293T-hTREM2 cells)
T1 sequence (Q9NZC2 19-230): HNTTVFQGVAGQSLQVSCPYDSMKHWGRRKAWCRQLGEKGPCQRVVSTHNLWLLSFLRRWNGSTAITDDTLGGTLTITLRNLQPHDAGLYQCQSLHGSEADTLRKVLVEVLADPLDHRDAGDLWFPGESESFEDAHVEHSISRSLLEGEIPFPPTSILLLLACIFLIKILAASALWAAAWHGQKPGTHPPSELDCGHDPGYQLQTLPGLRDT
T1 sequence (O43914 22-113 partner): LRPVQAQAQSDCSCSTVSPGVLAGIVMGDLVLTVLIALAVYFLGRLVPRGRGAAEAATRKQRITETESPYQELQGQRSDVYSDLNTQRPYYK
Method: Measurement of TREM2 agonist potency was done using a HEK cell line expressing human TREM2 and DAP12 (HEK293T-hTREM2 cells). Binding of small molecules to, and activation of, TREM2 increases the phosphorylation of Syk. The resultant levels of Syk phosphorylation are measured using a commercial AlphaLisa reagent kit. To perform the assay, HEK-hTREM2 cells were plated at 14,000 cells per well in a 384 well plate, in 25 μL of complete growth media and incubated at 37° C., 5% CO2 for 20-24 hours.
Prior to the assay, test compounds were diluted in the 384 well plates in assay buffer and allowed to equilibrate for 30 minutes. Growth media was removed from cell plates by inversion on blotting paper, and 25 μL of test articles in assay buffer was added to cells. Cells were incubated for 45 minutes at room temperature. After 45 minutes, assay buffer was removed and 10 μL of lysis buffer was added. Plates were shaken for 20 minutes at 350 RPM at room temperature. After complete lysis, AlphaLisa reagents were added to the lysate, and fluorescence intensity was measured using a Perkin Elmer Envision plate reader. Intensities were used to generate a standard curve, and % activation was calculated. Curve fitting was performed using Prism v9 software, log (agonist) vs response-variable slope (four parameters), and EC50s were calculated from the curve fit.
The results presented in Table B have been generated with the in vitro assay described above. This assay may be used to test any of the compounds described herein to assess and characterize a compound's ability to act as an agonist of TREM2.

| EC50 [nM] | Structure (SMILES) |
| --- | --- |
| < 100 | Cc1cc2c(-c3ccc(F)cc3F)nc(N3C[C@@H](C)O[C@@H](c4ccc(=O)n(C)c4)C3)cc2nc1C [Example 196, 5-((2S,6R)-4-(5-(2,4-difluorophenyl)-2,3-dimethyl-1,6-naphthyridin-7-yl)-6-methylmorpholin-2-yl)-1-methylpyridin-2 (1H)-one] |

same assay, conditions: hTREM2 EC50 Data (HEK293 Cells); Syk phosphorylation, AlphaLisa; read-out: hTREM2 EC50

| Structure (SMILES) | EC50 [nM] |
| --- | --- |
| Cc1cc2c(-c3ccc(F)cc3F)nc(N3C[C@@H](C)O[C@@H](c4ccc(=O)[nH]c4)C3)cc2nc1C [Example 192, 5-((2S,6R)-4-(5-(2,4-difluorophenyl)-2,3-dimethyl-1,6-naphthyridin-7-yl)-6-methylmorpholin-2-yl)pyridin-2(1H)-one] | 100 to 500 |
| Cc1nc2nc([C@H]3CCO[C@@H](c4ccc(=O)n(CCO)c4)C3)nc(C34CC(C(F)(F)F)(C3)C4)c2nc1C [Example 84, 5-[(2R,4S)-4-[6,7-dimethyl-4-[3-(trifluoromethyl)-1-bicyclo[1.1.1]pentanyl]pteridin-2-yl]tetrahydropyran-2-yl]-1-(2-hydroxyethyl)pyridin-2-one] | < 100 |
| COc1nc2c(-c3ccc(C(F)(F)F)cc3F)nc([C@H]3CCO[C@@H](c4ccc(=O)n(C5CC5)c4)C3)nc2nc1C [Example 134, 1-cyclopropyl-5-[(2R,4S)-4-[4-[2-fluoro-4-(trifluoromethyl)phenyl]-6-methoxy-7-methyl-pteridin-2-yl]tetrahydropyran-2-yl]pyridin-2-one] | < 100 |
| Cc1nc2nc([C@@H]3CCO[C@@H](c4ccc(=O)n(C5CC5)c4)C3)nc(-c3ccc(C(F)(F)F)cc3F)c2nc1C [Example 66, 1-cyclopropyl-5-[(2R,4R)-4-[4-[2-fluoro-4-(trifluoromethyl)phenyl]-6,7-dimethyl-pteridin-2-yl]tetrahydropyran-2-yl]pyridin-2-one] | < 100 |
| Cc1nc2nc([C@H]3C[C@@H](C)O[C@@H](c4ccc(=O)n(C5CC5)c4)C3)nc(C34CC(C(F)(F)F)(C3)C4)c2nc1C [Example 102, 1-cyclopropyl-5-[(2R,4S,6R)-4-[6,7-dimethyl-4-[3-(trifluoromethyl)-1-bicyclo[1.1.1]pentanyl]pteridin-2-yl]-6-methyl-tetrahydropyran-2-yl]pyridin-2-one] | < 100 |
| CCCNn1cc([C@H]2C[C@@H](c3nc(C45CC(C(F)(F)F)(C4)C5)c4nc(C)c(C)nc4n3)CCO2)ccc1=O [Example 212, 5-[(2R,4S)-4-[6,7-dimethyl-4-[3-(trifluoromethyl)-1-bicyclo[1.1.1]pentanyl]pteridin-2-yl]tetrahydropyran-2-yl]-1-(propylamino)pyridin-2-one] | < 100 |
| Cc1nc2nc([C@H]3CCO[C@@H](c4ccc(=O)n(C)c4)C3)nc(C3CCC(F)(F)CC3)c2nc1C [Example 28, 5-((2R,4S)-4-(4-(4,4-difluorocyclohexyl)-6,7-dimethylpteridin-2-yl)tetrahydro-2H-pyran-2-yl)-1-methylpyridin-2 (1H)-one] | < 100 |
| Cc1nc2nc([C@H]3C[C@@H](C)O[C@@H](c4ccc(=O)n(C)c4)C3)nc(C34CC(C(F)(F)F)(C3)C4)c2nc1C [Example 56, 5-[(2R,4S,6R)-4-[6,7-dimethyl-4-[3-(trifluoromethyl)-1-bicyclo[1.1.1]-pentanyl]pteridin-2-yl]-6-methyl-tetrahydropyran-2-yl]-1-methyl-pyridin-2-one] | < 100 |
| Cc1nc2nc([C@@H]3CCO[C@H](c4ccc(=O)n(C)c4)C3)nc(-c3ccc(C(F)(F)F)cc3F)c2nc1C [Example 5, 1-methyl-5-[(2S,4R)-4-[4-[2-fluoro-4-(trifluoromethyl)phenyl]-6,7-dimethyl-pteridin-2-yl]tetrahydropyran-2-yl]pyridin-2-one] | < 100 |
| Cc1nc2nc([C@H]3CCO[C@@H](c4ccc(=O)n(C)c4)C3)cc(C34CC(C(F)(F)F)(C3)C4)c2nc1C [Example 167, 1-methyl-5-[(2R,4S)-4-[2,3-dimethyl-8-[3-(trifluoromethyl)-1-bicyclo[1.1.1]pentanyl]pyrido[2,3-b]pyrazin-6-yl]tetrahydropyran-2-yl]pyridin-2-one] | < 100 |

Results, then the molecule that gave them:

| EC50 [nM] | Structure (SMILES) |
| --- | --- |
| < 100 | C[C@@H]1CN(c2nc(-c3ccc(F)cc3F)c3sc(N(C)C)nc3n2)C[C@H](c2ccc(=O)n(N)c2)O1 [Example 174, 1-amino-5-[(2S,6R)-4-[7-(2,4-difluorophenyl)-2-(dimethylamino)thiazolo[4,5-d]pyrimidin-5-yl]-6-methyl-morpholin-2-yl]pyridin-2-one] |
| 100 to 500 | Cc1nc2c(C34CC(C(F)(F)F)(C3)C4)nc([C@H]3CCO[C@@H](c4ccc(=O)[nH]c4)C3)nc2c(=O)n1C (racemic) [Example 216, 2,3-dimethyl-6-[rac-(2R,4S)-2-(6-oxo-1H-pyridin-3-yl)tetrahydropyran-4-yl]-8-[3-(trifluoromethyl)-1-bicyclo[1.1.1]pentanyl]pyrimido[5,4-d]pyrimidin-4-one] |
| < 100 | Cc1nc2nc([C@@H]3CCO[C@H](c4ccc(=O)n(C)c4)C3)nc(-c3ccc(C(F)(F)F)c(F)c3F)c2nc1C [Example 19] |
| 100 to 500 | CN(C)c1nc2nc([C@H]3CCO[C@H](c4ccc(=O)n(C)c4)C3)nc(-c3ccc(F)cc3F)c2s1 (stereo in doubt) [Example 11, 5-[(2S,4S)-4-[7-(2,4-difluorophenyl)-2-(dimethylamino)thiazolo[4,5-d]pyrimidin-5-yl]tetrahydropyran-2-yl]-1-methyl-pyridin-2-one] |
| < 100 | Cc1cc(-n2cc([C@H]3C[C@@H](c4nc(C56CC(C(F)(F)F)(C5)C6)c5nc(C)c(C)nc5n4)CCO3)ccc2=O)cs1 [Example 105, 5-((2R,4S)-4-(6,7-dimethyl-4-(3-(trifluoromethyl)bicyclo[1.1.1]pentan-1-yl)pteridin-2-yl)tetrahydro-2H-pyran-2-yl)-1-(5-methylthiophen-3-yl)pyridin-2 (1H)-one] |
| < 100 | Cc1nc2nc([C@H]3CCO[C@@H](c4ccc(=O)n(C5CC5)c4)C3)nc(-c3ccc(C(F)(F)F)cc3F)c2nc1C [Example 64, 1-cyclopropyl-5-[(2R,4S)-4-[4-[2-fluoro-4-(trifluoromethyl)phenyl]-6,7-dimethyl-pteridin-2-yl]tetrahydropyran-2-yl]pyridin-2-one] |
| < 100 | Cc1cc(-n2cc([C@H]3CC(c4nc(C56CC(C(F)(F)F)(C5)C6)c5nc(C)c(C)nc5n4)CCO3)ccc2=O)cs1 (stereo partly drawn) [Example 104, 5-((2R)-4-(6,7-dimethyl-4-(3-(trifluoromethyl)bicyclo-[1.1.1]pentan-1-yl)pteridin-2-yl)tetrahydro-2H-pyran-2-yl)-1-(5-methylthiophen-3-yl)pyridin-2 (1H)-one] |
| < 100 | Cc1nc2nc([C@H]3CCO[C@@H](c4ccc(=O)n(C5COC5)c4)C3)nc(C34CC(C(F)(F)F)(C3)C4)c2nc1C [Example 107, 5-[(2R,4S)-4-[6,7-dimethyl-4-[3-(trifluoromethyl)-1-bicyclo[1.1.1]pentanyl]pteridin-2-yl]tetrahydropyran-2-yl]-1-(oxetan-3-yl)pyridin-2-one] |
| < 100 | Cc1nc2nc([C@H]3CCO[C@@H](c4ccc(=O)n(C(C)C)c4)C3)nc(C34CC(C(F)(F)F)(C3)C4)c2nc1C [Example 77, 1-isopropyl-5-[(2R,4S)-4-[6,7-dimethyl-4-[3-(trifluoromethyl)-1-bicyclo[1.1.1]-pentanyl]pteridin-2-yl]tetrahydropyran-2-yl]pyridin-2-one] |
